# Results published in paper PMC9574860, “Chemical Toolkit for PARK7: Potent, Selective, and High-Throughput” (Journal of Medicinal Chemistry, 2022).
# Legend:
# PARK7 [1] = target: T1, PARK7 (Homo sapiens, UniProt Q99497); test: DiFMUAc PARK7 activity assay; type: biochemical; parameters: GST (N, cleaved yes); made in house; host or cells: E. coli BL21(DE3) Rosetta2; settings: for inhibition at 12.5 µM: read-out: DiFMuAc assay %Inhibiton (12.5 µM); for inhibition at 37.5 µM: read-out: DiFMuAc assay %Inhibiton (37.5 µM); for inhibition at 100 µM: read-out: DiFMuAc assay %Inhibiton (100 µM)
# T1 sequence (Q99497 1-189): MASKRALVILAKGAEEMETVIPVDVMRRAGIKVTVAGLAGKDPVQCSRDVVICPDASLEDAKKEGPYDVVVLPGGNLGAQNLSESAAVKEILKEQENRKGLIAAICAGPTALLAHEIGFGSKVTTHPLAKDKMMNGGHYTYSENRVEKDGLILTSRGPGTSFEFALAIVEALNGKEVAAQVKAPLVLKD
# Description: Compounds were transferred using a Labcyte Echo550 acoustic dispenser to obtain a 12-point serial dilution of 0.001 to 100 μM. Next, PARK7 (15 μL, final concentration of 0.1 μM) was dispensed with a Biotek MultiFlowFX liquid dispenser and incubated for 1 h, followed by dispensing the substrate DiFMUAc (5 μL, final concentration of 300 μM). The fluorescence intensity (FI) signal was monitored with a BMG Labtech PHERAstar plate reader (λex/em 350/450 nm) for 1 h.
# The validation was performed in the PBS buffer with a reaction volume of 20 μL per well in triplicate. […] Next, PARK7 (15 μL, final concentration 0.1 μM) was dispensed with a Biotek MultiFlowFX liquid dispenser and incubated for 2 h, followed by dispensing the substrate DiFMUAc (5 μL, final concentration 300 μM). The FI signal was monitored with a BMG Labtech PHERAstar plate reader (λex/em 350/450 nm) for 1 h. The increase of FI signal compared with reference controls was used to calculate the remaining enzyme activity. The inhibition percentage of these 22 compounds was plotted as a heatmap using GraphPad Prism 9.0.1 software. Color gradients indicate inhibition percentage, no inhibiton (white) and full inhibition (blue).
# PARK7 [2] = target: T1, PARK7; test: FP assay with Rhodamine110 probe JYQ-107 (IC50 and hit validation); type: binding; parameters: GST (N, cleaved yes); made in house; host or cells: E. coli BL21(DE3) Rosetta2; settings: for inhibition at 12.5 µM: read-out: FP assay %Inhibiton (12.5 µM); for inhibition at 37.5 µM: read-out: FP assay %Inhibiton (37.5 µM); for inhibition at 100 µM: read-out: FP assay %Inhibiton (100 µM)
# Description: The assay was performed using the conditions as described above with a reaction volume of 20 μL per well in triplicate. Stock solutions of JYQ-88 of 1 and 0.1 mM were prepared. […] The FP signal was monitored with a BMG Labtech PHERAstar plate reader (λex/em 480/520 nm) for 2 h.
# The validation was performed using the conditions as described above with a reaction volume of 20 μL per well in triplicate. […] The FP signal was monitored with a BMG Labtech PHERAstar plate reader (λex/em 480/520 nm) for 2 h. The relative loss of FP signal compared with reference controls was used to calculate the remaining enzyme activity. Inhibition percentage of these 40 compounds was plotted as a heatmap using GraphPad Prism 9.0.1 software. Color gradients indicate inhibition percentage, no inhibiton (white) and full inhibition (blue).
# [3] = 12.5 µM compound, PARK7 0.1 μM, 2 h preincubation, DiFMUAc 300 μM
# [4] = 37.5 µM compound, PARK7 0.1 μM, 2 h preincubation, DiFMUAc 300 μM
# [5] = 100 µM compound, PARK7 0.1 μM, 2 h preincubation, DiFMUAc 300 μM
# [6] = 12.5 µM compound, PARK7 0.2 μM, 1 h preincubation, JYQ-107 20 nM
# [7] = 37.5 µM compound, PARK7 0.2 μM, 1 h preincubation, JYQ-107 20 nM
# [8] = 100 µM compound, PARK7 0.2 μM, 1 h preincubation, JYQ-107 20 nM
smiles,measurement,setting,value
CSC1(C(=O)Nc2cccc(S(=O)(=O)F)c2)CC1 [Z1832812427],DiFMuAc assay %Inhibiton (12.5 µM),PARK7 [1]; [3],98.0%
same,DiFMuAc assay %Inhibiton (37.5 µM),PARK7 [1]; [4],92.6%
same,DiFMuAc assay %Inhibiton (100 µM),PARK7 [1]; [5],100.0%
same,FP assay %Inhibiton (12.5 µM),PARK7 [2]; [6],98.3%
same,FP assay %Inhibiton (37.5 µM),PARK7 [2]; [7],100.0%
same,FP assay %Inhibiton (100 µM),PARK7 [2]; [8],100.0%
CC1CCc2ccccc2N1C(=O)CCl (stereo not drawn) [Z220564178],inhibition at 12.5 µM,PARK7 [1]; [3],80.5%
same,inhibition at 37.5 µM,PARK7 [1]; [4],79.6%
same,inhibition at 100 µM,PARK7 [1]; [5],91.4%
same,inhibition at 12.5 µM,PARK7 [2]; [6],100%
same,inhibition at 37.5 µM,PARK7 [2]; [7],100%
same,inhibition at 100 µM,PARK7 [2]; [8],100%
O=C(CCl)C1CCOCC1 [Z2491498268],inhibition at 12.5 µM,PARK7 [1]; [3],94.3%
same,inhibition at 37.5 µM,PARK7 [1]; [4],95.5%
same,inhibition at 100 µM,PARK7 [1]; [5],93.2%
same,inhibition at 12.5 µM,PARK7 [2]; [6],100%
same,inhibition at 37.5 µM,PARK7 [2]; [7],100%
same,inhibition at 100 µM,PARK7 [2]; [8],100%
CC(c1ccccc1)N(C)C(=O)CCl (stereo not drawn) [Z86023354],inhibition at 12.5 µM,PARK7 [2]; [6],88.4%
same,inhibition at 37.5 µM,PARK7 [2]; [7],89.7%
same,inhibition at 100 µM,PARK7 [2]; [8],100%
NC(=O)c1csc(C(=O)CCl)c1 [Z802671642],inhibition at 12.5 µM,PARK7 [2]; [6],23.8%
same,inhibition at 37.5 µM,PARK7 [2]; [7],25.8%
same,inhibition at 100 µM,PARK7 [2]; [8],68%
CCn1ncnc1NS(=O)(=O)c1cccc(S(=O)(=O)F)c1 [Z2509462762],inhibition at 12.5 µM,PARK7 [1],100%
same,inhibition at 37.5 µM,PARK7 [1],100%
same,inhibition at 100 µM,PARK7 [1],100%
same,inhibition at 12.5 µM,PARK7 [2],100%
same,inhibition at 37.5 µM,PARK7 [2],100%
same,inhibition at 100 µM,PARK7 [2],100%
O=[N+]([O-])c1ccc(C(F)(F)F)c(S(=O)(=O)F)c1 [Z3396482545],FP assay %Inhibiton (12.5 µM),PARK7 [2]; [6],36.7%
same,FP assay %Inhibiton (37.5 µM),PARK7 [2]; [7],36.2%
same,FP assay %Inhibiton (100 µM),PARK7 [2]; [8],92.4%
O=C(CCl)c1ccc(F)c(Cl)c1 [Z2492395560],inhibition at 12.5 µM,PARK7 [2]; [6],20.7%
same,inhibition at 37.5 µM,PARK7 [2]; [7],37.4%
same,inhibition at 100 µM,PARK7 [2]; [8],88.1%
CC1CCC(N(C)C(=O)CCl)CC1 (stereo not drawn) [Z85923410],inhibition at 12.5 µM,PARK7 [1]; [3],81.8%
same,inhibition at 37.5 µM,PARK7 [1]; [4],94.6%
same,inhibition at 100 µM,PARK7 [1]; [5],97.4%
same,inhibition at 12.5 µM,PARK7 [2]; [6],85.7%
same,inhibition at 37.5 µM,PARK7 [2]; [7],100%
same,inhibition at 100 µM,PARK7 [2]; [8],100%
O=C(CCl)c1ccccn1 [Z1954803958],inhibition at 12.5 µM,PARK7 [2]; [6],0%
same,inhibition at 37.5 µM,PARK7 [2]; [7],0%
same,inhibition at 100 µM,PARK7 [2]; [8],23.5%
O=C(CCl)Nc1ccc(SC(F)F)cc1 [Z56896308],inhibition at 12.5 µM,PARK7 [2]; [6],62.4%
same,inhibition at 37.5 µM,PARK7 [2]; [7],65.9%
same,inhibition at 100 µM,PARK7 [2]; [8],100%
CCN(c1ccc(NC(=O)CCl)cc1)C(C)C [Z56896170],inhibition at 12.5 µM,PARK7 [1]; [3],81.4%
same,inhibition at 37.5 µM,PARK7 [1]; [4],94.9%
same,inhibition at 100 µM,PARK7 [1]; [5],97.4%
same,inhibition at 12.5 µM,PARK7 [2]; [6],100%
same,inhibition at 37.5 µM,PARK7 [2]; [7],100%
same,inhibition at 100 µM,PARK7 [2]; [8],100%
COc1ccccc1CN(C)C(=O)CCl [Z57051055],inhibition at 12.5 µM,PARK7 [2]; [6],68.3%
same,inhibition at 37.5 µM,PARK7 [2]; [7],66.1%
same,inhibition at 100 µM,PARK7 [2]; [8],100%
Cc1cc(C(=O)CCl)c(C)[nH]1 [Z235333089],inhibition at 12.5 µM,PARK7 [2]; [6],11.4%
same,inhibition at 37.5 µM,PARK7 [2]; [7],16.2%
same,inhibition at 100 µM,PARK7 [2]; [8],54.4%
Cc1ccc(C(=O)O)cc1S(=O)(=O)F [Z3242849759],DiFMuAc assay %Inhibiton (12.5 µM),PARK7 [1]; [3],93.6%
same,DiFMuAc assay %Inhibiton (37.5 µM),PARK7 [1]; [4],95.8%
same,DiFMuAc assay %Inhibiton (100 µM),PARK7 [1]; [5],93.1%
same,FP assay %Inhibiton (12.5 µM),PARK7 [2]; [6],100.0%
same,FP assay %Inhibiton (37.5 µM),PARK7 [2]; [7],100.0%
same,FP assay %Inhibiton (100 µM),PARK7 [2]; [8],100.0%
O=C(NCCCS(=O)(=O)F)c1cccs1 [Z3267389796],FP assay %Inhibiton (12.5 µM),PARK7 [2]; [6],83.1%
same,FP assay %Inhibiton (37.5 µM),PARK7 [2]; [7],80.1%
same,FP assay %Inhibiton (100 µM),PARK7 [2]; [8],100.0%
